Experimental data published in ChEMBL document CHEMBL1795287, “Efficient synthesis of 3-O-thia-cPA and preliminary analysis of its biological activity toward autotaxin” (Bioorg Med Chem Lett, 2011).

What was measured:
[1] = biological target: Autotaxin (Homo sapiens) (UniProt Q13822); experiment: Inhibition of human ATX catalytic activity in MDA-MB-231 cells using conditioned medium at 10 uM; assay type: cell-based
[2] = biological target: Autotaxin (Homo sapiens) (UniProt Q13822); experiment: Inhibition of human ATX catalytic activity in MDA-MB-231 cells using conditioned medium; assay type: cell-based

Structure (SMILES): CCCCCC/C=C\CCCCCCCC(=O)OCC1CSP(=O)(O)O1 (racemic)
- inhibition [1]: 55%
- inhibition [2]: Dose-dependent effect

Structure (SMILES): CCCCCCCC/C=C\CCCCCCCC(=O)OCC1COP(=O)(O)O1 (stereo not given)
- inhibition [1]: 25%

Structure (SMILES): CCCCCCCCCCCCCCCC(=O)OCC1CSP(=O)(O)O1 (racemic)
- inhibition [1]: 55%
- inhibition [2]: Dose-dependent effect

Structure (SMILES): CCCCCC/C=C\CCCCCCCC(=O)OCC1COP(=O)(O)C1 (stereo not given)
- inhibition [1]: 66%

Structure (SMILES): CCCCCCCC/C=C\CCCCCCCC(=O)OCC1CSP(=O)(O)O1 (racemic)
- inhibition [1]: 55%
- inhibition [2]: Dose-dependent effect

Structure (SMILES): CCCCCCCCCCCCCCCCCC(=O)OCC1CSP(=O)(O)O1 (racemic)
- inhibition [1]: 55%
- inhibition [2]: Dose-dependent effect
